According to ChEMBL document CHEMBL4308841, “Synthesis, in vitro antiproliferative activity, and kinase inhibitory effects of pyrazole-containing diarylureas and diarylamides” (Eur J Med Chem, 2018):

How the values were obtained:
HOP-62 = test: Growth inhibition of human HOP62 cells incubated for 48 hrs by sulforhodamine B assay; type: functional, cell-based; details: HOP-62, 48 h
Malme-3M [1] = test: Growth inhibition of human MALME-3M cells assessed as cell growth at 0.1 uM incubated for 48 hrs by sulforhodamine B assay relative to control; type: functional; details: read-out: Activity
CAKI-1 [2] = test: Growth inhibition of human Caki1 cells assessed as cell growth at 0.1 uM incubated for 48 hrs by sulforhodamine B assay relative to control; type: functional; details: CAKI-1, 48 h, read-out: Activity
SF-295 = test: Growth inhibition of human SF295 cells assessed as cell growth at 0.01 uM incubated for 48 hrs by sulforhodamine B assay relative to control; type: functional; details: SF-295, 48 h, read-out: Activity
SNB-75 = test: Growth inhibition of human SNB75 cells incubated for 48 hrs by sulforhodamine B assay; type: functional, cell-based; details: SNB-75, 48 h
786-0 = test: Growth inhibition of human 786-0 cells assessed as cell growth at 0.1 uM incubated for 48 hrs by sulforhodamine B assay relative to control; type: functional; details: 786-0, 48 h, read-out: Activity
KM12 [3] = test: Growth inhibition of human KM12 cells assessed as cell growth at 0.01 uM incubated for 48 hrs by sulforhodamine B assay relative to control; type: functional; details: KM12, 48 h, read-out: Activity
U-251 [4] = test: Growth inhibition of human U251 cells incubated for 48 hrs by sulforhodamine B assay; type: functional, cell-based; details: U-251, 48 h
MDA-MB-231 = test: Growth inhibition of human MDA-MB-231 cells assessed as cell growth at 100 uM incubated for 48 hrs by sulforhodamine B assay relative to control; type: functional; details: MDA-MB-231, 48 h, read-out: Activity
Hs-578T [5] = test: Growth inhibition of human Hs578T cells assessed as cell growth at 1 uM incubated for 48 hrs by sulforhodamine B assay relative to control; type: functional; details: read-out: Activity
NCI-H322M [6] = test: Growth inhibition of human NCI-H322M cells incubated for 48 hrs by sulforhodamine B assay; type: functional, cell-based
NCI-H322M [7] = test: Growth inhibition of human NCI-H322M cells assessed as cell growth at 0.01 uM incubated for 48 hrs by sulforhodamine B assay relative to control; type: functional; details: read-out: Activity
HCC 2998 = test: Growth inhibition of human HCC2998 cells assessed as cell growth at 0.1 uM incubated for 48 hrs by sulforhodamine B assay relative to control; type: functional; details: HCC 2998, 48 h, read-out: Activity
Hs-578T [8] = test: Growth inhibition of human Hs578T cells assessed as cell growth at 0.01 uM incubated for 48 hrs by sulforhodamine B assay relative to control; type: functional; details: read-out: Activity
HCT-15 = test: Growth inhibition of human HCT15 cells assessed as cell growth at 0.01 uM incubated for 48 hrs by sulforhodamine B assay relative to control; type: functional; details: HCT-15, 48 h, read-out: Activity
NCI/ADR-RES = test: Growth inhibition of human NCI/ADR-RES cells assessed as cell growth at 1 uM incubated for 48 hrs by sulforhodamine B assay relative to control; type: functional; details: read-out: Activity
U-251 [9] = test: Growth inhibition of human U251 cells assessed as cell growth at 100 uM incubated for 48 hrs by sulforhodamine B assay relative to control; type: functional; details: U-251, 48 h, read-out: Activity
NCI-H460 = test: Growth inhibition of human NCI-H460 cells assessed as cell growth at 100 uM incubated for 48 hrs by sulforhodamine B assay relative to control; type: functional; details: NCI-H460, 48 h, read-out: Activity
SF-539 = test: Growth inhibition of human SF539 cells assessed as cell growth at 100 uM incubated for 48 hrs by sulforhodamine B assay relative to control; type: functional; details: SF-539, 48 h, read-out: Activity
MOLT-4 = test: Growth inhibition of human MOLT4 cells assessed as cell growth at 100 uM incubated for 48 hrs by sulforhodamine B assay relative to control; type: functional; details: MOLT-4, 48 h, read-out: Activity
UO-31 = test: Growth inhibition of human UO31 cells incubated for 48 hrs by sulforhodamine B assay; type: functional, cell-based; details: UO-31, 48 h
PC-3 = test: Growth inhibition of human PC3 cells assessed as cell growth at 100 uM incubated for 48 hrs by sulforhodamine B assay relative to control; type: functional; details: PC-3, 48 h, read-out: Activity
SK-MEL-2 = test: Growth inhibition of human SK-MEL-2 cells assessed as cell growth at 10 uM incubated for 48 hrs by sulforhodamine B assay relative to control; type: functional; details: SK-MEL-2, 48 h, read-out: Activity
SK-OV-3 = test: Growth inhibition of human SKOV3 cells assessed as cell growth at 0.1 uM incubated for 48 hrs by sulforhodamine B assay relative to control; type: functional; details: SK-OV-3, 48 h, read-out: Activity
UACC-62 = test: Growth inhibition of human UACC62 cells assessed as cell growth at 0.01 uM incubated for 48 hrs by sulforhodamine B assay relative to control; type: functional; details: UACC-62, 48 h, read-out: Activity
Malme-3M [10] = test: Growth inhibition of human MALME-3M cells assessed as cell growth at 0.01 uM incubated for 48 hrs by sulforhodamine B assay relative to control; type: functional; details: read-out: Activity
CAKI-1 [11] = test: Growth inhibition of human Caki1 cells assessed as cell growth at 0.01 uM incubated for 48 hrs by sulforhodamine B assay relative to control; type: functional; details: CAKI-1, 48 h, read-out: Activity
OVCAR-4 = test: Growth inhibition of human OVCAR4 cells assessed as cell growth at 0.01 uM incubated for 48 hrs by sulforhodamine B assay relative to control; type: functional; details: OVCAR-4, 48 h, read-out: Activity
KM12 [12] = test: Growth inhibition of human KM12 cells assessed as cell growth at 0.1 uM incubated for 48 hrs by sulforhodamine B assay relative to control; type: functional; details: KM12, 48 h, read-out: Activity
MDA-MB-435 = test: Growth inhibition of human MDA-MB-435 cells assessed as cell growth at 0.01 uM incubated for 48 hrs by sulforhodamine B assay relative to control; type: functional; details: MDA-MB-435, 48 h, read-out: Activity
[13] = read-out: LC50 (the source's name)
[14] = read-out: pLC50 (the source's name) (converted)

Q: `O=C(Nc1cccc(-n2cc(-c3ccncc3)c(-c3cc(O)cc(Cl)c3)n2)c1)c1cc(C(F)(F)F)cc(C(F)(F)F)c1` was tested. Which GI50 (HOP-62; read-out: GI50) did it give?
A: 9.52 µM

Q: What about the CC50 (HOP-62; [13]) of the same molecule?
A: > 100 µM

Q: What about the TGI (HOP-62; read-out: TGI) of the same molecule?
A: > 100 µM

Q: What about the GI50 (HOP-62; read-out: pGI50 (converted)) of the same molecule?
A: 9.77 µM

Q: What about the CC50 (HOP-62; [14]) of the same molecule?
A: > 100 µM

Q: And the TGI (HOP-62; read-out: pTGI (converted))?
A: > 100 µM

Q: What about the growth at 0.1 µM (Malme-3M [1]) of the same molecule?
A: 52%

Q: And the growth at 0.1 µM (CAKI-1 [2])?
A: 98%

Q: And the growth at 0.01 µM (SF-295)?
A: 92%

Q: What about the GI50 (SNB-75; read-out: GI50) of the same molecule?
A: 2300 nM

Q: And the CC50 (SNB-75; [13])?
A: > 100 µM

Q: What about the TGI (SNB-75; read-out: TGI) of the same molecule?
A: > 100 µM

Q: And the GI50 (SNB-75; read-out: pGI50 (converted))?
A: 2820 nM

Q: What about the CC50 (SNB-75; [14]) of the same molecule?
A: > 100 µM

Q: What about the TGI (SNB-75; read-out: pTGI (converted)) of the same molecule?
A: > 100 µM

Q: And the growth at 0.1 µM (786-0)?
A: 97%

Q: What about the growth at 0.01 µM (KM12 [3]) of the same molecule?
A: 96%

Q: What about the IC50 (U-251 [4]) of the same molecule?
A: 3.23 µM

Q: And the GI50 (U-251 [4]; read-out: GI50)?
A: 3.23 µM

Q: What about the CC50 (U-251 [4]; [13]) of the same molecule?
A: > 100 µM

Q: What about the TGI (U-251 [4]; read-out: TGI) of the same molecule?
A: 24.4 µM

Q: And the GI50 (U-251 [4]; read-out: pGI50 (converted))?
A: 3.24 µM

Q: What about the CC50 (U-251 [4]; [14]) of the same molecule?
A: > 100 µM

Q: And the TGI (U-251 [4]; read-out: pTGI (converted))?
A: 30.9 µM

Q: And the growth at 100 µM (MDA-MB-231)?
A: -84%

Q: And the growth at 1 µM (Hs-578T [5])?
A: 92%

Q: What about the GI50 (NCI-H322M [6]; read-out: GI50) of the same molecule?
A: 7.92 µM

Q: What about the CC50 (NCI-H322M [6]; [13]) of the same molecule?
A: > 100 µM

Q: What about the TGI (NCI-H322M [6]; read-out: TGI) of the same molecule?
A: > 100 µM

Q: What about the GI50 (NCI-H322M [6]; read-out: pGI50 (converted)) of the same molecule?
A: 7.94 µM

Q: And the CC50 (NCI-H322M [6]; [14])?
A: > 100 µM

Q: And the TGI (NCI-H322M [6]; read-out: pTGI (converted))?
A: > 100 µM

Q: What about the growth at 0.01 µM (NCI-H322M [7]) of the same molecule?
A: 103%

Q: And the growth at 0.1 µM (HCC 2998)?
A: 95%

Q: And the growth at 0.01 µM (Hs-578T [8])?
A: 93%

Q: And the growth at 0.01 µM (HCT-15)?
A: 96%

Q: And the growth at 1 µM (NCI/ADR-RES)?
A: 94%

Q: And the growth at 100 µM (U-251 [9])?
A: -28%

Q: And the growth at 100 µM (NCI-H460)?
A: 1%

Q: What about the growth at 100 µM (SF-539) of the same molecule?
A: -13%

Q: What about the growth at 100 µM (MOLT-4) of the same molecule?
A: 3%

Q: What about the IC50 (UO-31) of the same molecule?
A: 2500 nM

Q: What about the GI50 (UO-31; read-out: GI50) of the same molecule?
A: 2500 nM

Q: And the CC50 (UO-31; [13])?
A: > 100 µM

Q: What about the TGI (UO-31; read-out: TGI) of the same molecule?
A: > 100 µM

Q: And the GI50 (UO-31; read-out: pGI50 (converted))?
A: 2510 nM

Q: What about the CC50 (UO-31; [14]) of the same molecule?
A: > 100 µM

Q: And the TGI (UO-31; read-out: pTGI (converted))?
A: > 100 µM

Q: And the growth at 100 µM (PC-3)?
A: -8%

Q: And the growth at 10 µM (SK-MEL-2)?
A: 57.8%

Q: What about the growth at 0.1 µM (SK-OV-3) of the same molecule?
A: 98%

Q: And the growth at 0.01 µM (UACC-62)?
A: 90%

Q: What about the growth at 0.01 µM (Malme-3M [10]) of the same molecule?
A: 97%

Q: And the growth at 0.01 µM (CAKI-1 [11])?
A: 97%

Q: And the growth at 0.01 µM (OVCAR-4)?
A: 96%

Q: What about the growth at 0.1 µM (KM12 [12]) of the same molecule?
A: 97%

Q: And the growth at 0.01 µM (MDA-MB-435)?
A: 91%
